Results from article PMC4106024 (Cancer biology & therapy, 2008).
Entries after “also recorded” stand apart in the source; their conditions may differ. Like-named read-outs stand apart in the source and are kept apart here. *: point of attachment. Cbz = O=C(OCc1ccccc1)*; CH2F = FC*

Legend:
Bcl-2 expressing B-cells = conditions: in vitro; cited from earlier work
[1] = in vivo, cited from earlier work
[2] = Stability test in solid state, spectral purity by HPLC-UV; type: physicochemical; conditions: amber glass container, room temperature, n = 2
[3] = Stability under stressed conditions, spectral purity by HPLC-UV; type: physicochemical; conditions: n = 2
WSU-DLCL2 cells [4] = assay: Cell growth inhibition by Trypan Blue cell counting and MTT assay; type: cell-based, human; conditions: WSU-DLCL2, 350 nM, Trypan Blue cell counting
WSU-DLCL2 xenografts = assay: In vivo efficacy test in WSU-DLCL2 SCID mouse xenografts; set-up: species or system ICR-SCID mice; conditions: 600 mg/kg (120 mg/kg daily for 5 days), iv or po
recombinant human Mcl-1 = recombinant human Mcl-1 (Homo sapiens, UniProt Q07820); assay: Fluorescence polarization-based competitive binding assay
[5] = system: protein levels of Bcl-XL or Bim; assay: Western blot of whole cell lysate for Bcl-XL and Bim; type: cell-based, human; conditions: concentrations up to 5 μM
WSU-DLCL2 cells [6] = assay: Acridine orange/ethidium bromide; type: cell-based, human; conditions: 4.0 μm
[7] = system: cleavage of caspase-3, caspase-9 and PARP; assay: Western blot of apoptosis markers in WSU-DLCL2 cells; type: cell-based, human; conditions: WSU-DLCL2 whole cell lysate
FSCCL cells = assay: Cell growth inhibition, Trypan blue cell counting; type: cell-based, human; conditions: high level of Bcl-2
WM cells = assay: Cell growth inhibition, Trypan blue cell counting; type: cell-based, human; conditions: very low level of Bcl-2
PANC-1 cells = assay: Cell growth inhibition, MTT assay; type: cell-based, human; conditions: PANC-1, very low level of Bcl-2
[8] = Serum concentration in mice; type: in vivo; conditions: iv 80 mg/kg per day for five days
[9] = system: non-tumor-bearing SCID mice; conditions: in vivo
[10] = system: normal peripheral blood lymphocytes; assay: Cytotoxic effect on normal lymphocytes, Trypan Blue cell counting; conditions: as high as 8 μM, 72 h
[11] = system: primary cells of mantle cell lymphoma; assay: Cytotoxic effect on patient-derived primary cells, Trypan Blue cell counting; conditions: 350 nM or higher, 72 h
[12] = system: primary cells of chronic lymphocytic leukemia; assay: as above; conditions: 350 nM or higher, 72 h
DLCL2 cells = assay: Growth inhibition of DLCL2 cells with caspase inhibitors and/or ApoG2; type: cell-based, human
WSU-DLCL2 cells [13] = conditions: read-out: Estimated IC50; cited from earlier work
[14] = system: normal female Balb/c mice; conditions: 120 μM/kg (approximately 62 mg/kg), five days daily po × 3 weeks; versus vehicle control or Apogossypol; cited from earlier work
Maximal tolerated dose = conditions: SCID, mouse, in vivo, iv, 40 mg/kg
[15] = system: non-tumor-bearing SCID mice; assay: Maximal tolerated dose

Sequence of recombinant human Mcl-1 (Q07820 whole entry): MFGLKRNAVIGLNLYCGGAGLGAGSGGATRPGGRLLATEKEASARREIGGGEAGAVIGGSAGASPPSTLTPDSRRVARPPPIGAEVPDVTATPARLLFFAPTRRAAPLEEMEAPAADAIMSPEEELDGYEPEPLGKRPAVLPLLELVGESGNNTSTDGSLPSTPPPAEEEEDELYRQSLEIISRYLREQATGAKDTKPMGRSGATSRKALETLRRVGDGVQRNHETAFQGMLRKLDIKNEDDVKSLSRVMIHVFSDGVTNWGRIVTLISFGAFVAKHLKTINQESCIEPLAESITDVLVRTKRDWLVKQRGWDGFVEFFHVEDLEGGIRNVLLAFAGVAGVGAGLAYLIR

Compound: Cc1cc2c(C(C)C)c(O)c(O)cc2c(O)c1-c1c(C)cc2c(C(C)C)c(O)c(O)cc2c1O [Apogossypol]
- medial lethal dose (LD50) (Bcl-2 expressing B-cells): 3 to 5 µM
- Blood concentrations over time [1]: superior blood concentrations over time compared to gossypol

Compound: Cc1cc2c(C(C)C)c(O)c(O)c(C=O)c2c(O)c1-c1c(C)cc2c(C(C)C)c(O)c(O)c(C=O)c2c1O (racemic) [Racemic gossypol, gossypol, reference compound]
- Spectral purity in solid state ([2]; 0 h): 100.0 ± 0%
- Spectral purity in solid state ([2]; 2 weeks): 99.9 ± 0.1%
- Spectral purity in solid state ([2]; 3 weeks): 99.8 ± 0.2%
- Spectral purity in solid state ([2]; 4 days): 99.4 ± 0.1%
- Spectral purity in solid state ([2]; 7 days): 99.8 ± 0.1%
- Spectral purity under stressed conditions ([3]; 0.1 N HCI, 5 mm): 15.8 ± 0.4%
- Spectral purity under stressed conditions ([3]; 0.1 N NaOH, 5 mm): 10.4 ± 0.2%
- Spectral purity under stressed conditions ([3]; 30% H2O2, 5 mm): 14.5 ± 0.4%
- Spectral purity under stressed conditions ([3]; Normal light, 2 h): 92.3 ± 0.2%
- Spectral purity under stressed conditions ([3]; Reference): 92.6 ± 0.6%

Compound: Apogossypolone [ApoG2]
- Spectral purity in solid state ([2]; 0 h): 100.0 ± 0%
- Spectral purity in solid state ([2]; 2 weeks): 100.0 ± 0.1%
- Spectral purity in solid state ([2]; 3 weeks): 100.0 ± 0.1%
- Spectral purity in solid state ([2]; 4 days): 99.7 ± 0.5%
- Spectral purity in solid state ([2]; 7 days): 99.9 ± 0.2%
- Spectral purity under stressed conditions ([3]; 0.1 N HCI, 5 mm): 96.5 ± 0.4%
- Spectral purity under stressed conditions ([3]; 0.1 N NaOH, 5 mm): 96.3 ± 0.4%
- Spectral purity under stressed conditions ([3]; 30% H2O2, 5 mm): 97.3 ± 0.2%
- Spectral purity under stressed conditions ([3]; Normal light, 2 h): 95.2 ± 0.2%
- Spectral purity under stressed conditions ([3]; Reference): 98.0 ± 0.4%
- Growth inhibition (WSU-DLCL2 cells [4]): approximately 50%
- Growth inhibition of mouse xenografts, single agent (WSU-DLCL2 xenografts): comparable with that resulted from treatment with CHOP; also recorded: significant growth inhibition
- Ki (recombinant human Mcl-1; recombinant Mcl-1, n = 3): 25 ± 10 nM
- Protein levels of Bcl-XL or Bim [5]: did not affect significantly
- Apoptotic cells (AO/EtBr) (WSU-DLCL2 cells [6]; 24 h, control approximately 3%): 10%
- Apoptotic cells (AO/EtBr) (WSU-DLCL2 cells [6]; 48 h, control approximately 4%): 17%
- Apoptotic cells (AO/EtBr) (WSU-DLCL2 cells [6]; 72 h, control approximately 7%): 32%
- Cleavage of caspase-3, caspase-9 and PARP [7]: resulted in the activation of cleavages of caspase-3, caspase-9 and PARP
- Growth inhibition (FSCCL cells): induces growth inhibition
- Growth inhibition (WM cells): induces growth inhibition
- Growth inhibition (PANC-1 cells): induces growth inhibition
- Serum concentration (unbound) [8]: 5.0 µM
- H & E staining of sections of mouse liver, small and large intestines [9]: no abnormality
- Cytotoxicity on normal cells [10]: no major cytotoxicity; also recorded: no toxicity
- Cytotoxic effect [11]: significant cytotoxic effect
- Cytotoxic effect [12]: significant cytotoxic effect

Compound: Z-DEVD-FMK
- Growth inhibition, caspase inhibitor alone (DLCL2 cells): no effects of growth inhibition

Compound: Cbz-LEHD-CH2F
- Growth inhibition, caspase inhibitor alone (DLCL2 cells): no effects of growth inhibition

Compound: Cc1cc2c(C(C)C)c(O)c(O)c(C=O)c2c(O)c1-c1c(C)cc2c(C(C)C)c(O)c(O)c(C=O)c2c1O [(-)-gossypol, reference compound]
- Ki (recombinant human Mcl-1): 170 ± 10 nM
- IC50 (WSU-DLCL2 cells [13]): > 1000 nM

Compound: Cc1cc2c(C(C)C)c(O)c(O)c(C=O)c2c(O)c1-c1c(C)cc2c(C(C)C)c(O)c(O)c(C=O)c2c1O [gossypol]
- medial lethal dose (LD50) (Bcl-2 expressing B-cells): 7.5 to 10 µM
- Hepatotoxicity and gastrointestinal toxicity [14]: a great deal of hepatotoxicity and gastrointestinal toxicity
- Bioavailability when given orally ([1]; po): 12.2–17.6%
- MTD at 3 days (Maximal tolerated dose): 120 mg/kg
- Signs of toxicity at MTD ([15]; 120 mg/kg (3 x 40 mg/kg iv)): scruffy and rough hair as well as lethargic behavior
- Weight loss at MTD ([15]; 120 mg/kg (3 x 40 mg/kg iv), data not shown): < 5%
- Lethality ([15]; daily iv injection of 40 mg/kg for 4 days or 60 mg/kg for three days): lethal
- H & E staining of sections of mouse liver, small and large intestines ([15]; versus vehicle control, data not shown): no abnormality

Compound: Cbz-Val-Ala-Asp-CH2F
- Growth inhibition, caspase inhibitor alone (DLCL2 cells): no effects of growth inhibition
